The nature of data set [1]: Ex vivo radiometabolite analysis in CD-1 mice. As for the experimental part: Female adult CD-1 mice (25–42 g body weight) were used for radiometabolite analysis of [^18F]JHU94620-d4 (n = 2, 33 and 34 MBq) and [^18F]JHU94620-d8 (n = 3, 26–33 MBq) at 30 min after intravenous tail vein injection of the radiotracer to allow for the comparison of radiometabolite analysis of [^18F]JHU94620 (Moldovan et al. [2016]). The mice were immobilized by short isoflurane narcosis for the injection of the radiotracer in a restrainer and awakened mice were kept in an isolated cage until euthanisation by cervical dislocation under isoflurane narcosis. Male Wistar rats (n = 12, 613–794 g) were used for radiometabolite analysis of [^18F]JHU94620-d8 at different time points (5, 15, 30 and 60 min p.i.) after intravenous tail vein injection of the radiotracer (37–74 MBq) for the correction of the input function in pharmacokinetic analysis. Rats were kept under isoflurane narcosis (gas mixture: 2.5% isoflurane and O2) on a warmed plate until euthanization by decapitation of deep narcotized animals. Plasma samples were obtained by centrifugation with 5500 g of blood samples for 2 min at 4 °C. Resected tissues brain and spleen were kept on ice and minced for 3 × 20 s with adding 0.5 to 1 mL of 0.9% NaCl using a Precellys lysing kit and Minilys homogenizer (Bertin Technologies SAS, Montigny-le-Bretonneux, France).
The samples were further processed for subsequent radio-chromatographic analyses. Two consecutive extractions were performed in duplicates for plasma and brain determinations. Plasma, brain and spleen samples were added to the four time the volume of an ice-cold MeOH/H2O mixture (9:1, v/v). The samples were vortexed for 3 min, incubated on ice for 5 min and centrifuged at 8,600 g for 5 min. Supernatants were collected and the precipitates were re-dissolved in 100 µL of extraction solvent and the extraction procedure was repeated. The activities of supernatants and precipitates were measured in a γ-counter (1480 WIZARD, Perkin Elmer), and the extraction efficiencies were calculated as the ratio of radioactivity in the supernatant to the radioactivity in the original sample (supernatant + precipitate). The supernatants from both extractions were combined, concentrated at 70 °C under argon stream up to a remaining volume of 100 µL, and subsequently analysed by analytical radio-HPLC (method A or B).

The target in data set [2] is T1, CB2R (Mus musculus, UniProt P47936).
T1 construct: from tissue; host or cells: mouse spleen cryosections
In words: Quantitative autoradiography, mouse spleen cryosections. Format: binding. The protocol:
(§1) For quantitative autoradiography in different species, 10 µm cryosections from mouse, rat and piglet spleen were thawed, dried, and pre-incubated with incubation buffer for 10 min, dried under an airstream. Subsequently, the incubation buffer containing [^18F]JHU94620-d8 (59–137 GBq µmol^−1, 1.7–3.6 nM) was added alone or together with indicated concentrations of the reference compound. Additionally, to assess the non-specific binding of [^18F]JHU94620-d8 to cryosections GW405833 was added instead of the reference compound. After 90 min, cryosections were washed two times for 2 min with ice-cold 50 mM Tris HCl, pH7.4 and 10 s in ddH2O and subsequently dried under an airstream. For the calculation of the radioactivity concentration, 5 µl of five serial 1:2 dilutions of the incubation buffer with [^18F]JHU94620-d8 were air-dried on a microscopic slide. For binding studies in rat spleen cryosections by autoradiography with HLM-derived radiometabolites of [^18F]JHU94620-d8 obtained from the radiometabolite assay, the samples were added to the incubation buffer to a final activity concentration of 0.2 MBq mL^−1 and protocol was followed as described above. Subsequently, the slides were exposed to a phosphor imager plate. After scanning at high sensitivity and a 12.5 µm resolution with a CR35 Bio image plate scanner (Raytest Isotopenmessgeräte GmbH, Straubenhardt, Germany). The analyses of the autoradiographic images were performed with the AIDA 5.1 software (Elysia-Raytest, Angleur, Belgium) resulting in a resolution of 12.617 pixel × 12.616 pixel per µm^2 (1 voxel = 1592 µm^3 ≙ 1.59 10^–3 µg wet tissue) and inhibition curves were created with GraphPad Prism 9.5.1 (GraphPad Inc., La Jolla, CA). […]

The test system of data set [3] is CB2R. In words: Quantitative autoradiography, pig spleen cryosections. It is filed as binding. The note with it: blocking with 10 µM GW405833 or self-blocking. The protocol: as §1, with “Germany).” for “Germany). The analyses of the autoradiographic images were performed with the AIDA 5.1 software (Elysia-Raytest, Angleur, Belgium) resulting in a resolution of 12.617 pixel × 12.616 pixel per µm^2 (1 voxel = 1592 µm^3 ≙ 1.59 10^–3 µg wet tissue) and inhibition curves were created with GraphPad Prism 9.5.1 (GraphPad Inc., La Jolla, CA).”

[4] abbreviates: female, CD-1, mouse, in vivo, 30 min.

T1 sequence (P47936 whole entry): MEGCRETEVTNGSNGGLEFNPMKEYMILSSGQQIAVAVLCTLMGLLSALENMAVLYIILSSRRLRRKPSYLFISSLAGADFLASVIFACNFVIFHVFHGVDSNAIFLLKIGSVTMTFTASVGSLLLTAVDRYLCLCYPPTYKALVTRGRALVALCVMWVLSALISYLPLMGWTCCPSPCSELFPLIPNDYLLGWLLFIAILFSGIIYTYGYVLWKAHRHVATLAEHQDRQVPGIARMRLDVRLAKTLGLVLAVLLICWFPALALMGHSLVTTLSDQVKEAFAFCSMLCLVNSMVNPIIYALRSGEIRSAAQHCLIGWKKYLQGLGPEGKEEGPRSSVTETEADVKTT

As for `[2H]C([2H])([18F])C([2H])([2H])C([2H])([2H])C([2H])([2H])n1c(C)c(C)s/c1=N\C(=O)C1C(C)(C)C1(C)C` [[^18F]JHU94620-d8], the “percentage printed at the radiotracer peak of the representative radio-HPLC chromatogram (Mice)” value in data set [1] (CD-1, mouse, in vivo, 30 min) was 80%. Besides, the “parent fraction in brain, higher compared to the non-deuterated isotopologue” value in data set [1] (CD-1 mice, brain, 30 min p.i.) turned out to be 50%. For the same compound, in data set [1] (CD-1 mice, brain, 30 min p.i., mean ± SD), the “parent fraction in brain” value amounted to 0.72 ± 0.05. Moreover, the “in vivo metabolic stability (comparison in words)” value in data set [1] (female, CD-1, mouse, in vivo, 0.5 h) is “slightly superior to [^18F]JHU94620-d4”. Moreover, in data set [1] (setting [4]), the “parent fraction in blood plasma” value is listed as 0.13 ± 0.04 and the “parent fraction in spleen” value amounted to 0.87 ± 0.10. This compound also yielded a Kd on CB2R [2] of 1.98 nM. Also, on CB2R [2] (mouse spleen cryosections, blocking with 10 µM GW405833 or self-blocking), the “specific binding to CB2R” value came to 40 ± 18%. The compound also gave a Bmax at CB2R [2] (spleen of mice) of 0.08 pmol mg^−1 protein. In the data set with CB2R [3], the “specific binding to CB2R” value is on record as 22 ± 11%.

For the origin of these results see article PMC11666850, “Development and evaluation of deuterated [^18F]JHU94620 isotopologues for the non-invasive assessment of the cannabinoid type 2 receptor in brain” (EJNMMI Radiopharmacy and Chemistry, 2024).
